{
  "source": "patent US20080075796A1",
  "about": "“Compositions and Methods for Controlling Insects” (TyraTech, Inc., priority 2003, published 2008)",
  "key": {"Or83b receptor [1]": {"target": "T1, Or83b receptor (Drosophila melanogaster, UniProt Q9VNB5)", "T1 construct": "His (from vector pAc5.1/V5-His B) (C); expressed in transfected cells", "T1 sequence (Q9VNB5 1-486)": "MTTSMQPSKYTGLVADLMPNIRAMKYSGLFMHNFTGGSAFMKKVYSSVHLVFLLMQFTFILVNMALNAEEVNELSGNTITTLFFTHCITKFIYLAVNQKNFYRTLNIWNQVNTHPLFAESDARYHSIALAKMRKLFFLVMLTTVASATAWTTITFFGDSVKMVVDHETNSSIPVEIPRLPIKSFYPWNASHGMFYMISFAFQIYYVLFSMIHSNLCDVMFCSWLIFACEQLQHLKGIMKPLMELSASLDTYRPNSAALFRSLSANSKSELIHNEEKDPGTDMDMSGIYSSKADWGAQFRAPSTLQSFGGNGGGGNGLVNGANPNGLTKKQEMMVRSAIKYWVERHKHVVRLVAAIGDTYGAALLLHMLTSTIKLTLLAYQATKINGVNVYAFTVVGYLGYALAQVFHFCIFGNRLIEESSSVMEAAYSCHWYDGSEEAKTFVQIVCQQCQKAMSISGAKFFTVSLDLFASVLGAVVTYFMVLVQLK", "experiment": "Saturation binding of ^3H-tyramine to membranes from Schneider cells expressing Or83b receptor", "experimental": "To address whether Or83b receptor and Or43a receptor contain a specific binding site for tyramine, membranes expressing Or83b receptor or Or43a receptor are prepared from cells expressing either receptor, as described above, and used for competitive binding with ^3H-tyramine. The binding assay protocol is exactly as described for cells expressing TyrR, as described above."}, "Or83b receptor [2]": {"target": "T1, Or83b receptor", "experiment": "cAMP production in Schneider cells expressing Or83b receptor", "assay_type": "cell-based", "experimental": "Cells are grown on dishes and the media changed the day before the treatment. When cells are approximately 95% confluent, media is aspirated and the cells are washed one time with about 5 mL of about 27° C. insect saline (170 mM NaCl, 6.0 mM KCl, 2.0 mM NaHCO3, 17.0 mM glucose, 6.0 mM NaH2PO4, 2.0 mM CaCl2, 4.0 mM MgCl2; pH 7.0). About 20 mL of insect saline is added, and cells are harvested by gentle scraping. An aliquot of the cells is counted by hemocytometer, and the cells are then centrifuged for about 5 minutes at about 1000 RPM. Cells are resuspended to give about 3×10^6 cells per mL. IBMX is added to about 200 μM. Then about 1 mL of cell suspension is aliquoted for treatment. Forskolin (cAMP inducing agent), tyramine or different composition candidates are added, and the cells are incubated at about 27° C. for about 10 minutes.\nTreated cells are centrifuged at about 13000 g for about 10 seconds. The solution is aspirated and about 1 mL of about −20° C. 70% ethanol is added. The cell pellet is disrupted by vortexing and the samples placed at about −20° C. overnight. Following the ethanol extraction, cellular debris is pelleted by centrifugation at about 13000 g for about 5 minutes. The supernatant is transferred to a tube and lyophilized to dryness in a rotary speed-vac. The resulting extract is resuspended in about 100 μL TE and used for the cAMP assay.\nThe cAMP assay is based on competition binding between endogenous cAMP and ^3H-cAMP to a cAMP binding protein. The ^3H-cAMP Biotrak system (Amersham Biosciences) is used for this assay as per the manufacturer's instructions. Briefly, about 50 μL of the cellular extract is incubated with about 50 μL ^3H-cAMP and about 100 μL cAMP binding protein in an ice bath for about 2-4 hours. Charcoal (about 100 μL) is then added and the solution centrifuged for about 3 minutes at about 4° C. About 200 μL of the reaction mixture is removed and levels of ^3H-cAMP are determined by scintillation counting. Levels of endogenous cAMP from the cells are calculated using a standard curve with cold cAMP ranging from about 0 to 16 pmol per reaction.\nTo ensure that the cAMP cascade in this cell model is functionally active, forskolin, a cAMP inducer, is used as standard agent. Cyclic-AMP levels are measured using the cAMP assay described above in Example 2. […]\nTo determine the effect of various plant essential oils on intracellular cAMP production and the tyramine-dependent changes of cAMP in cells expressing one of the olfactory receptors, cells from each cell model are treated with LFO (about 50 μg/ml) and BSO (about 50 μg/ml) in the presence and absence of tyramine (about 20 μM) and forskolin (about 10 μM) and intracellular cAMP is thereafter quantified using the cAMP assay described above in Example 2."}, "tyramine receptor (TyrR)": {"target": "T2, tyramine receptor (TyrR) (Drosophila melanogaster, UniProt P22270)", "T2 sequence (P22270 27-601)": "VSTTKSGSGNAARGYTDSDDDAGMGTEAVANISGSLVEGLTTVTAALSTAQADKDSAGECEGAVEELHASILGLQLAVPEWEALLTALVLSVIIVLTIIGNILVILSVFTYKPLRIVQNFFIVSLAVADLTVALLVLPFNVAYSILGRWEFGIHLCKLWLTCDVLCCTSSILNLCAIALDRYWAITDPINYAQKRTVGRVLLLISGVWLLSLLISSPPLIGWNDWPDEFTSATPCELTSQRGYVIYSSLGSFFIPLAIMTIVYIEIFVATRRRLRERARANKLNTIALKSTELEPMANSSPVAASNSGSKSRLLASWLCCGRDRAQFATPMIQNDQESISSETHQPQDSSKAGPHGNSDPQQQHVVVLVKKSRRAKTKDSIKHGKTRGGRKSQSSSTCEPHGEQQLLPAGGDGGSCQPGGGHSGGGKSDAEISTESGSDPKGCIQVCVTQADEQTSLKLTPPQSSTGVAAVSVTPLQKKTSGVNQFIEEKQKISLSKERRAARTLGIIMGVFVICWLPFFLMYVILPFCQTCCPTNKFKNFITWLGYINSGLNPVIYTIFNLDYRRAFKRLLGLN", "experiment": "Saturation binding of ^3H-tyramine to membranes from Schneider cells expressing tyramine receptor", "protocol": "A preliminary study to determine the optimum concentration of membrane protein for receptor binding activity is performed. […] After about 1 hr incubation at room temperature, reactions are terminated by filtration through GF/C filters (VWR), which have been previously soaked in about 0.3% polyethyleneimine (PEI). The filters are washed one time with about 4 ml ice cold Iris buffer and air dried before the retained radioactivity is measured using LSC. Binding data is analyzed by curve fitting (GraphPad software, Prism).\nReceptor binding reactions are incubated for about 1 hr at room temperature (RT) in restricted light. Reactions are terminated by filtration through OF/C filters (VWR), which have been previously soaked in about 0.3% polyethyleneimine (PEI). The filters are washed one time with about 4 ml ice cold Tris buffer and air dried before retained radioactivity is measured using LSC. Binding data is analyzed by curve fitting (GraphPad software, Prism)."}},
  "note": "pKd, pKi: −log10 of the molar value.",
  "data": [
    {"smiles": "NCCc1ccc(O)cc1", "note": "[tyramine]", "values": [
      {"measurement": "pKd", "setting": "Or83b receptor [1]", "result": "~7.01"},
      {"measurement": "pKi", "setting": "Or83b receptor [1]", "result": 7.01},
      {"measurement": "increase of cAMP production beyond the effect of forskolin by itself", "setting": "Or83b receptor [2]; forskolin-pretreated cells (about 10 μM)", "result": "10-13%"},
      {"measurement": "increase in cAMP production", "setting": "Or83b receptor [2]; tyramine about 20 μM, LFO and BSO about 50 μg/ml", "result": "approximately 34%"},
      {"measurement": "pKi", "setting": "tyramine receptor (TyrR)", "result": 8.90},
      {"measurement": "Bmax", "setting": "tyramine receptor (TyrR); saturation binding, membranes expressing TyrR, listed as Tyramine", "result": 0.679, "unit": "pmol/mg protein"}
    ]}
  ]
}
